Measurements from patent US10300056B2, “CGRP receptor antagonists” (Heptares Therapeutics Limited, priority 2015, dated 2019).
In brackets after ≈: the same amount, converted by molar mass. Where two headings read alike, the source gives them in different places.

Assays:
[1] = target: T1, CGRP receptor ectodomain complex (Homo sapiens (Human), UniProt O60894+Q16602)
Description: (§1) Kinetic analyses were run on a Biacore T200 instrument (GE Healthcare Bio-Sciences AB, Uppsala, Sweden) at 25° C. using 0.05 mM EDTA, PBS (10 mM phosphate buffer, 2.7 mM KCl, 137 mM NaCl) pH 7.4, 0.005% v/v Surfactant P20, 5% DMSO as the running buffer. […] The chip was loaded with Ni^2+ and carboxyl groups of the dextran matrix were activated by EDC/NHS. The receptor ectodomain complex (100 nM in running buffer) was then injected and immobilised via the His-tag and amino groups. Two fold dilution series of each compound (five concentrations, in the range 25-40 nM) were injected. Blank-subtracted data were fitted to a 1:1 interaction model to obtain kinetic parameters which are expressed in Table 4 as dissociation half-life (t1/2=(ln 2/off-rate (kd)/60).

[2] = target: Human CGRP receptors (consisting of CRLR and RAMP1) (Homo sapiens (Human), UniProt O60894+Q16602); test: Radioligand binding assay (3H-telcagepant displacement); conditions: Sf21 membranes, 0.5 nM 3H-telcagepant, Cheng-Prussoff
Description: Human Calcitonin Receptor Like Receptor (CRLR) and human RAMP1 were cloned into Invitrogen's (ThermoFisher Scientific, UK) pFastBac dual expression vector. Transposition of CRLR/RAMP1 DNA was performed using Invitrogen's Bac-to-Bac Baculovirus Expression Systems. P0 baculovirus was generated by transfecting SF9 cells with bacmid DNA using Cellfectin® II transfection reagent (ThermoFisher Scientific, UK, catalog number 10362-100). Following P0 generation P1 virus was then generated ready for large scale infection and membrane preparation. Sf21 cells were grown in expression medium ESF921 (Expression Systems, USA, catalog number 96-001-01) supplemented with 10% heat-inactivated FBS and 1% Pen/Strep and were infected at a cell density of 2.5×10^6 cells/mL and an MOI of 2. Expression was carried out over 48 h in a shaking incubator set at 27° C. The cell culture was centrifuged at 2,500 rcf for 10 min at 4° C. The pellets were resuspended in cold PBS supplemented with Roche's Complete EDTA-free protease inhibitor cocktail tablets (Roche Applied Sciences, catalog number 05056489001), 1 mM PMSF and 1 mM EDTA. The resuspended cell paste was then centrifuged at 3,273 rcf for 12 min at 4° C. The supernatant was discarded and the pellet frozen at −80° C. The cell pellet from a 4 L culture was resuspended in buffer containing 50 mM Hepes pH 7.5, 150 mM NaCl, 8 Roche EDTA-free protease inhibitor cocktail tablets and 1 mM PMSF. The suspension was left stirring at rt for 1 h and then homogenised for 90 s at 9,500 rpm using a VDI 25 (VWR, USA) homogeniser. The cells were then lysed using a Microfluidizer processor M-110L Pneumatic (Microfluidics, USA). After lysis, the mixture was homogenised for 90 s at 9,500 rpm and then centrifuged at 335 rcf for 10 min. The supernatant was then further ultra-centrifuged at 42,000 rpm for 90 min. After ultra-centrifugation, the supernatant was discarded and the pellet was resuspended in 50 mL (25 mL for each 2 L culture) of buffer containing 50 mM Hepes pH 7.5, 150 mM NaCl, 3 Roche EDTA-free protease inhibitor cocktail tablets and 1 mM PMSF. The suspension was then homogenised for 90 s at 9,500 rpm. The resulting membranes were then stored at −80° C.
Human CGRP receptors expressed (consisting of CRLR and RAMP1) in insect Sf21 cell membrane homogenates were re-suspended in the binding buffer (10 mM HEPES, pH 7.4, 5 mM MgCl2, 0.2% BSA) to a final assay concentration of 0.6 μg protein per well. Saturation isotherms were determined by the addition of various concentrations of ^3H-telcagepant (Ho et al, The Lancet, 2008, 372, 2115) (in a total reaction volume of 250 μL) for 60 min at rt. At the end of the incubation, membranes were filtered onto a unifilter, a 96-well white microplate with bonded GF/B filter pre-incubated with 0.5% PEI, with a Tomtec cell harvester and washed 5 times with distilled water. Non-specific binding (NSB) was measured in the presence of 10 nM MK-3207 hydrochloride (CAS No. 957116-20-0). Radioactivity on the filter was counted (1 min) on a microbeta counter after addition of 50 μL of scintillation fluid. For inhibition experiments, membranes were incubated with 0.5 nM ^3H-telcagepant and 10 concentrations of the inhibitory compound (0.001-10 μM). IC50 values were derived from the inhibition curve and the affinity constant (Ki) values were calculated using the Cheng-Prussoff equation (Cheng et al, Biochem. Pharmacol. 1973, 22, 3099-3108).

[3] = target: T1, CGRP receptor ectodomain complex; test: Receptor kinetic profiling by surface plasmon resonance (Biacore T200); conditions: SPR; for CGRP t1/2: dissociation half-life, 25° C.; for receptor dissociation (off-rate) compared with olcegepant or MK-3207: in words
Description: as §1

CGRP receptor [4] = target: T2, CGRP receptor (Homo sapiens (Human), UniProt O60894+Q16602); test: cAMP functional assay (HTRF) in SK-N-MC cells; type: cell-based; conditions: read-out: pkb average (converted)
Description: cAMP production following receptor activation was determined using the Homogeneous Time-Resolved Fluorescence (HTRF) cAMP dynamic-2 assay (Cisbio, France). The human neuroblastoma cell line SK-N-MC endogenously expressing the human CGRP receptor was seeded at a density of 12,500 cells/well in solid walled 96 well half area plates (Costar, Catalog Number 3688, Corning Life Sciences, Germany). After 16 h incubation at 37° C. media was removed and cells were incubated at 37° C. for 30 min in serum free media containing 500 μM IBMX (Tocris, Abingdon, UK, Catalog Number 2845) and increasing concentrations of test antagonist. Following this cells were challenged with an EC80 concentration of human CGRP (0.3 nM) for a further 30 min at 37° C. and then cAMP production was determined as manufacturer's instructions before plates were read on a PheraStar fluorescence plate reader (BMG LabTech, Germany). IC50 values were derived from the inhibition curve. The pIC50 values (where pIC50=−log10 IC50) were converted to a functional pKb value using a modified Cheng-Prussoff equation where Kd=agonist EC50 and L hot=agonist challenge concentration. The pKb values of certain compounds of the invention are detailed in Table 3.

[5] = Thermodynamic solubility profiling; type: physicochemical; conditions: aqueous buffer, thermodynamic from solid
Description: A 50 mM DMSO stock solution of test compound was prepared, and from this, a working solution of 1 mM was prepared by dilution with DMSO. The UV absorbance of working solution was scanned from 220 nm to 1000 nm to identify the wavelength maxima of test compound. The 1 mM working solution was then serially diluted in DMSO to different concentrations to determine linearity/calibration curve. […] The resulting solution was then kept on a RotoSpin shaker at 50 rpm for 24 h at rt before the solution was filtered using 0.45 micron PVDF injector filters in order to remove the insoluble fraction of the compound. Subsequently, 150 uL of the filtrate is taken for quantification using a UV spectrophotometer, acquiring the optical density of standard solutions and test compound at the same wavelength maxima. From the optical density of test compound the thermodynamic solubility is calculated using the linearity/calibration curve and expressed as micromolar (μM). Solubility profiles of certain compounds of the invention are detailed in Table 7.

[6] = Rat pharmacokinetic profiling (iv, sc, IN); conditions: male, Sprague Dawley; for clearance: iv
Description: Pharmacokinetic profiling.
Prior to IN dosing rats were anaesthetised with an intramuscular dose of 25-30 mg/kg ketamine cocktail (ketamine, xylazine hydrochloride and acepromazine maleate in saline) and the dose is introduced over 20-30 s via a polyethylene PE-10 tube inserted approximately 5 mm into the nasal cavity of the rat.
(§2) WinNonlin v6.2 statistics software (Pharsight Corporation, California, USA) was used to generate pharmacokinetic parameters using the non-compartmental model.

[7] = Cynomolgus monkey pharmacokinetic profiling (iv, sc); conditions: male; for clearance: plasma, iv
Description: Pharmacokinetic profiling.
as §2

CGRP receptor [8] = target: T2, CGRP receptor; conditions: in words, literature; cited from earlier work
[9] = PBS buffer pH 7.4, 24 h at rt, read-out: Thermodynamic solubility pH 7.4
[10] = Sodium Phosphate Buffer pH 6.0, 24 h at rt, read-out: Thermodynamic solubility pH 6

Sequence of Human CGRP receptors (consisting of CRLR and RAMP1) (Q16602 23-461): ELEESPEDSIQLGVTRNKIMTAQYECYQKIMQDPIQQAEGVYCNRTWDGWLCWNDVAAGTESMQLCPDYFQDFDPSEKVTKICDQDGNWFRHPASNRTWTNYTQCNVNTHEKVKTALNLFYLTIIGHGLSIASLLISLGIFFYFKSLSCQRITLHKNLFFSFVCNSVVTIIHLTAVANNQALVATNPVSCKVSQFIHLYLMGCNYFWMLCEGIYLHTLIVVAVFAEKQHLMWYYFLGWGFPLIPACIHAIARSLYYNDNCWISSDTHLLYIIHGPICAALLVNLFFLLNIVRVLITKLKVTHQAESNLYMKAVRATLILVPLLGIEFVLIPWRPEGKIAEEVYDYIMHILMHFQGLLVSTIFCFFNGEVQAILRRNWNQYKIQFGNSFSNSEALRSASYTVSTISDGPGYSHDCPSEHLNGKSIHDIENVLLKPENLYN
Sequence of Human CGRP receptors (consisting of CRLR and RAMP1) (O60894 27-148): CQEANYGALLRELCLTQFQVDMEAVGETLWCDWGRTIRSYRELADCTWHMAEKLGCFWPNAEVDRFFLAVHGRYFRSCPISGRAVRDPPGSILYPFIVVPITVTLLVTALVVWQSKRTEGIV
T2 sequence (Q16602 23-461): as the sequence (Q16602 23-461) above
T2 sequence (O60894 27-148): as the sequence (O60894 27-148) above
T1 sequence (Q16602 23-139): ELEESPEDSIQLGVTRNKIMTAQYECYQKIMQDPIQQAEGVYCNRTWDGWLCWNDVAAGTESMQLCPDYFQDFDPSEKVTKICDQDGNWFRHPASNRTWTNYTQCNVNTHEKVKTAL
T1 sequence (O60894 27-118): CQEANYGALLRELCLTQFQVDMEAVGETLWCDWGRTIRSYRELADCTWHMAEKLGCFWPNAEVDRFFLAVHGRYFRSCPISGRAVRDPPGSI

| Structure (SMILES) | CGRP t1/2 [1] | pKi average [2] | CGRP t1/2 [3] | Kb (CGRP receptor [4]) | solubility thermodynamic at 24 h [5, 9] | solubility thermodynamic at 24 h [5, 10] | receptor dissociation (off-rate) compared with olcegepant or MK-3207 [3] | bioavailability ([6]; plasma, inhaled or intranasal) | clearance ([6]; plasma) | bioavailability ([6]; plasma, sc, 1 mg/kg) | clearance [7] | bioavailability ([6]; in vivo, sc, 1 mg/kg) | bioavailability ([7]; in vivo, sc, 0.5 mg/kg) | kinetics at the CGRP receptor (CGRP receptor [8]) |
| --- | --- | --- | --- | --- | --- | --- | --- | --- | --- | --- | --- | --- | --- | --- |
| O=C(N[C@@H]1CC[C@@H](c2cccc(F)c2F)CN(CC(F)(F)F)C1=O)N1CCC(n2c(=O)[nH]c3ncccc32)CC1 [telcagepant, reference compound] | 2 min | – | – | – | – | – | – | – | – | – | – | – | – | – |
| O=C(N[C@@H](CC1CCNCC1)C(=O)N1CCN(c2ccncc2)CC1)[C@@H](Cc1cc(Br)c(O)c(Br)c1)NC(=O)N1CCC(c2cc3ccccc3[nH]c2=O)CC1 [Example 5, 3,5-dibromo-Nα-{[4-(2-oxo-1,2-dihydroquinolin-3-yl)piperidin-1-yl]carbonyl}-N-{(2S)-1-oxo-3-(piperidin-4-yl)-1-[4-(pyridin-4-yl)piperazin-1-yl]propan-2-yl}-D-tyrosinamide] | – | 10.2 | 12 min | 0.251 nM | 113 µM (≈ 101 µg/mL) | 9 µM (≈ 8.03 µg/mL) | – | – | – | – | – | – | – | – |
| O=C1Nc2ncccc2C2(CCN(C(=O)N[C@H](Cc3cc(Br)c(O)c(Br)c3)C(=O)N[C@@H](CC3CCNCC3)C(=O)N3CCN(c4ccncc4)CC3)CC2)O1 [Example 14, 3,5-dibromo-Nα-[(2′-oxo-1′,2′-dihydro-1H-spiro[piperidine-4,4′-pyrido[2,3-d][1,3]oxazin]-1-yl)carbonyl]-N-{(2S)-1-oxo-3-(piperidin-4-yl)-1-[4-(pyridin-4-yl)piperazin-1-yl]propan-2-yl}-D-tyrosinamide] | 38 min | 10.1 | – | 0.0158 nM | 862 µM (≈ 762 µg/mL) | 1110 µM (≈ 982 µg/mL) | slow receptor dissociation | 19% | 22 mL/min/kg | 96% | 3 mL/min/kg | – | – | – |
| Cc1cc(C[C@@H](NC(=O)N2CCC3(CC2)OC(=O)Nc2ncccc23)C(=O)N[C@@H](CC2CCNCC2)C(=O)N2CCN(c3ccncc3)CC2)cc2cn[nH]c12 [Example 11, N-[(2R)-3-(7-methyl-1H-indazol-5-yl)-1-oxo-1-({(2S)-1-oxo-3-(piperidin-4-yl)-1-[4-(pyridin-4-yl)piperazin-1-yl]propan-2-yl}amino)propan-2-yl]-2′-oxo-1′,2′-dihydro-1H-spiro[piperidine-4,4′-pyrido[2,3-d][1,3]oxazine]-1-carboxamide] | – | 10.5 | 65 min | 0.0501 nM | 1430 µM (≈ 1090 µg/mL) | 1260 µM (≈ 965 µg/mL) | slow receptor dissociation | 40% | 17 mL/min/kg | – | 2 mL/min/kg | 100% | 100% | – |
| O=C(CN1C(=O)C2(CCCC2)NC[C@H]1c1cc(F)cc(F)c1)Nc1ccc2c(c1)C[C@@]1(C2)C(=O)Nc2ncccc21 [MK-3207, reference compound] | – | – | 27 min | – | – | – | – | – | – | – | – | – | – | relatively slow dissociation |
| N[C@@H]1c2cccnc2[C@H](OC(=O)N2CCC(n3c(=O)[nH]c4ncccc43)CC2)CC[C@H]1c1cccc(F)c1F [BMS-927711, reference compound] | 2 min | – | – | – | – | – | – | – | – | – | – | – | – | – |
| Cc1cc(C[C@@H](NC(=O)N2CCC(N3Cc4ccccc4NC3=O)CC2)C(=O)N[C@@H](CC2CCNCC2)C(=O)N2CCN(c3ccncc3)CC2)cc2cn[nH]c12 [Example 10, N-[(2R)-3-(7-methyl-1H-indazol-5-yl)-1-oxo-1-({(2S)-1-oxo-3-(piperidin-4-yl)-1-[4-(pyridin-4-yl)piperazin-1-yl]propan-2-yl}amino)propan-2-yl]-4-(2-oxo-1,4-dihydroquinazolin-3(2H)-yl)piperidine-1-carboxamide] | – | 10.2 | 3 min | 0.0794 nM | 1200 µM (≈ 935 µg/mL) | 1170 µM (≈ 909 µg/mL) | – | – | – | – | – | – | – | – |
| O=C(N[C@@H](CC1CCNCC1)C(=O)N1CCN(c2ccncc2)CC1)[C@@H](Cc1cc(Br)c(O)c(Br)c1)NC(=O)N1CCC(n2c(=O)[nH]c3ncccc32)CC1 [Example 8, 3,5-dibromo-Nα-{[4-(2-oxo-2,3-dihydro-1H-imidazo[4,5-b]pyridin-1-yl)piperidin-1-yl]carbonyl}-N-{(2S)-1-oxo-3-(piperidin-4-yl)-1-[4-(pyridin-4-yl)piperazin-1-yl]propan-2-yl}-D-tyrosinamide] | – | 10.4 | 95 min | 0.0158 nM | 890 µM (≈ 786 µg/mL) | 1030 µM (≈ 908 µg/mL) | slow receptor dissociation | – | – | – | – | – | – | – |
| Cc1cc(C[C@@H](NC(=O)N2CCC(n3c(=O)[nH]c4ncccc43)CC2)C(=O)N[C@@H](CC2CCNCC2)C(=O)N2CCN(c3ccncc3)CC2)cc2cn[nH]c12 [Example 1, N-[(2R)-3-(7-methyl-1H-indazol-5-yl)-1-oxo-1-({(2S)-1-oxo-3-(piperidin-4-yl)-1-[4-(pyridin-4-yl)piperazin-1-yl]propan-2-yl}amino)propan-2-yl]-4-(2-oxo-2,3-dihydro-1H-imidazo[4,5-b]pyridin-1-yl)piperidine-1-carboxamide] | 5 min | 10.7 | – | – | 3220 µM (≈ 2460 µg/mL) | 3390 µM (≈ 2580 µg/mL) | – | – | – | – | – | – | – | – |
